Test results: patent US20250144247A1, “FORMULATIONS TO ENHANCE THE DELIVERY OF GENE THERAPY VECTORS” (priority 2023, published 2025)

Assays:
[1] = test system: human airway epithelial cells (HAE); type: cell-based; conditions: for Ad-GFP gene transfer at 1-7% tonicities: Ad-GFP MOI=250, apical 2 h, 5 days; for Ad gene transfer: Ad-GFP MOI=250 combined 1:1 with reagent, apical 2 hours, imaged 5 days, LPC 0.1%, EGTA 250 mM, doxorubicin 5 μM, NaCl 3.6%, Infasurf
[2] = Osmolarity and pH of the solutions; type: physicochemical
[3] = test system: human airway epithelia (HAE); test: Endosomal acidification inhibitors on NaCl enhanced Ad5-GFP transduction; type: cell-based; conditions: pre-treated 2 h with CQ 200 μM or bafilomycin A1 1 μM; Ad5-GFP MOI=250 with NaCl 3.6%
Source text: GFP expression was quantified by flow cytometry 5 days later. […] GFP was quantified 5 days post-transduction.

[4] = test system: human airway epithelial cells (HAE); test: Transepithelial electrical resistance (TEER) of HAE after apical reagent; type: cell-based; conditions: apical 5 minutes; LPC 0.1%, EGTA 250 mM, doxorubicin 5 μM, NaCl 3.6%, Infasurf 35 mg/ml
Description: The University of Iowa In Vitro Models and Cell Culture Core cultured and maintained human airway epithelial cells (HAE) as previously described (33). Briefly, following enzymatic disassociation of trachea and bronchus epithelia, the cells were seeded onto collagen-coated, polycarbonate transwell inserts (0.4 μm pore size; surface area=0.33 cm^2; Corning Costar, Cambridge, MA). HAE were submerged in Ultroser G (USG) medium for 24 hours (37° C. and 5% CO2) at which point the apical media is removed to encourage polarization and differentiation at an air-liquid interface. Transepithelial electrical resistance was measured using an Ohmmeter […]
Disrupting the epithelial tight junctions allows Ad5-based viral vectors access to their basolaterally localized coxsackie and adenovirus receptor (CXADR) (12). Unless otherwise specified, these studies use the Ad5 serotype. […] First, reagents were applied to the apical surface of HAE for 5 minutes and then TEER was measured using an ohmmeter. […] In separate cultures, Ad-GFP (MOI=250) in 50 μl of DMEM combined 1:1 with the test reagents was applied to the apical surface for 2 hours. 5 days post-treatment, cells were imaged by fluorescence microscopy.

Molecule | Ad-GFP gene transfer at 1-7% tonicities [1] | Osmolarity ([2]; 1% solution) [mOsmol/l] | Osmolarity ([2]; 2% solution) [mOsmol/l] | Osmolarity ([2]; 3% solution) [mOsmol/l] | Osmolarity ([2]; 4% solution) [mOsmol/l] | Osmolarity ([2]; 5% solution) [mOsmol/l] | Osmolarity ([2]; 6% solution) [mOsmol/l] | Osmolarity ([2]; 7% solution) [mOsmol/l] | transepithelial electrical resistance (TEER) [4] | Ad gene transfer [1] | other results
N-methyl-d-glucamine gluconate [NMDG gluconate] | Dose-dependent increases | 342 | 684 | 1027 | 1369 | 1711 | 2053 | 3693 |  |  | 
CO/C1=C\C(C)=C\[C@@H](C)[C@@H](O)[C@@H](C)C/C(C)=C/C=C/[C@H](OC)[C@@H]([C@@H](C)[C@@H](O)[C@H](C)[C@@]2(O)C[C@@H](O)[C@H](C)[C@@H](C(C)C)O2)OC1=O [bafilomycin A1] |  |  |  |  |  |  |  |  |  |  | NaCl enhanced Ad5-GFP transduction after inhibitor [3]: significantly decreased
COc1cccc2c1C(=O)c1c(O)c3c(c(O)c1C2=O)C[C@@](O)(C(=O)CO)C[C@@H]3O[C@H]1C[C@H](N)[C@H](O)[C@H](C)O1 [doxorubicin] |  |  |  |  |  |  |  |  | decreased TEER | did not enhance Ad gene transfer | 
[Cl-].[K+] [KCl, potassium chloride] | Dose-dependent increases | 268 | 537 | 805 | 1073 | 1341 | 1610 | 1878 |  |  | Osmolarity ([2]; 3.6% solution): 970 mOsmol/l
O=C([O-])[C@H](O)[C@@H](O)[C@H](O)[C@H](O)CO.[Na+] [NaGluconate, sodium gluconate] |  |  |  |  |  |  |  |  |  |  | Osmolarity ([2]; 3.6% solution): 120 mOsmol/l
lysophosphatidylcholine [LPC] |  |  |  |  |  |  |  |  | reduced TEER | increased gene transfer | 
CCN(CC)CCCC(C)Nc1ccnc2cc(Cl)ccc12 (stereo not shown) [chloroquine] |  |  |  |  |  |  |  |  |  |  | NaCl enhanced Ad5-GFP transduction after inhibitor [3]: significantly decreased
OC[C@@H](O)[C@@H](O)[C@H](O)[C@H](O)CO [mannitol] | did not enhance gene transfer | 55 | 110 | 170 | 220 | 270 | 330 | 380 |  |  | 
O=C(O)CN(CCOCCOCCN(CC(=O)O)CC(=O)O)CC(=O)O [EGTA] |  |  |  |  |  |  |  |  | reduced TEER | increased gene transfer | 
